Measured values taken from patent US20240091203A1, “METHODS FOR TREATING NON-OBSTRUCTIVE HYPERTROPHIC CARDIOMYOPATHY” (Cytokinetics, Incorporated, priority 2022, published 2024).
Entries after “also recorded” stand apart in the source; their conditions may differ.

Assays:
[1] = Phase 1 plasma pharmacokinetics, single-ascending dose (SAD) cohorts; assay type: in vivo, human; conditions: for AUC24 / Cmax / AUCinf / CL/F / t1/2 / Tmax: SAD; for CL/F / t1/2: mean ± SD; for Tmax: median (range)
Description: Single-ascending dose (SAD) cohorts. The SAD portion of the study used a randomized, double-blind, placebo-controlled, sequential, escalating-dose design, in which participants received single-ascending oral doses of the study drug. Seven cohorts were dosed in sequence (FIG. 2).
(§1) Pharmacokinetic analyses. For all study groups, blood samples for PK assessment were obtained pre-dose, up to 12 times daily on day 1, and then at regular intervals throughout the study. Blood samples were collected according to the following schedule: SAD Cohorts: Day 1: pre-dose and 0.25, 0.5, 1, 1.5, 2, 2.5, 3, 4, 6, 8, 12, 16, 24, 36, 48, 72, 96, and 216 h post dose. MAD Cohorts (14-day Dosing): Day 1: pre-dose and 0.25, 0.5, 1, 1.5, 2, 2.5, 3, 4, 6, 8, and 12 h post dose; Days 2, 4, 5, 6, and 9: pre-dose (corresponding to trough samples following dosing on days 1, 3, 4, 5, and 8) and 1.5 h post dose; Days 3, 7, 8, 10, 11, 12, and 13: pre-dose (corresponding to trough samples following dosing on days 2, 6, 7, 9, 10, 11, and 12); Day 14: pre-dose and 0.25, 0.5, 1.5, 2, 2.5, 3, 4, 6, 8, 12, 16, 24, 36, 48, 72, and 168 h post dose. MAD Cohort (17-Day Dosing): Day 1: pre-dose and 0.25, 0.5, 1, 1.5, 2, 2.5, 3, 4, 6, 8, and 12 h post dose; Days 2, 4, 5, 6, and 9: pre-dose (corresponding to trough samples following dosing on days 1, 3, 4, 5, and 8) and 1.5 h post dose; Days 3, 7, 8, 10, 11, 12, 13, 14, 15, and 16: pre-dose (corresponding to trough samples following dosing on days 2, 6, 7, 9, 10, 11, and 12); Day 17: pre-dose and 0.25, 0.5, 1.5, 2, 2.5, 3, 5, 7, 9, 12, 24, 36, 48, 72, and 168 h post dose. CYPD6-PM Cohort: Day 1: pre-dose and 0.25, 0.5, 1, 1.5, 2, 2.5, 3, 4, 6, 8, 12, 16, 24, 36, 48, 72, 96, 216, 312, and 552 h post dose. Food-Effect Cohort: Day 1: pre-dose and 0.25, 0.5, 1, 1.5, 2, 2.5, 3, 4, 6, 8, 12, 16, 24, 36, 48, 72, 96, 144, and 216 h post dose. Standard non-compartmental methods were used to calculate PK parameters using Phoenix® WinNonlin® Version 7.0; actual sample collection times were utilized.
Statistical Analysis. The sample size chosen for this study was based upon precedent set by other first-in-human PK studies of similar nature and was not based on power calculations. […] All participants who received ≥1 dose of the study drug and had ≥1 evaluable PK plasma profile were included in the PK analysis set. […]

[2] = Phase 1 plasma pharmacokinetics, multiple-ascending dose (MAD) cohorts; assay type: in vivo, human; conditions: for AUC24 / Cmax / Tmax: Day 1; for AUC24 / Cmax / AUCtau / Cmax, ss: geometric mean; for AUC24 / Cmax / Tmax / AUCtau / Cmax, ss / CLss/F / t1/2 / Tmax, ss: n = 6; for Tmax / Tmax, ss: median; for CLss/F / t1/2: mean ± SD
Description: Multiple-ascending dose (MAD) cohorts. The MAD cohorts also used a randomized, double-blind, placebo-controlled, sequential design.
as §1
For the MAD cohort, the parameters were AUC24 and Cmax on day 1, plus AUC to the end of the dosing period (AUCtau) and Cmax on day 14 or 17. The statistical linear relationship between the In-transformed PK parameters and the In-transformed dose was verified by including the quadratic (ln Dose)^2 and cubic (ln Dose)^3 effects. […] The dose-proportionality analysis was performed using SAS® PROC MIXED.
An analysis of variance (ANOVA) model was conducted separately for each dose level; day was included as the fixed effect. Helmert contrasts were developed such that each time-point was compared with the mean of the subsequent time-points.

[3] = single oral 1 mg, geometric mean (geometric CV %), n = 6
[4] = single oral 3 mg, geometric mean (geometric CV %), n = 6
[5] = single oral 25 mg, geometric mean (geometric CV %), n = 6
[6] = single oral 40 mg, geometric mean (geometric CV %), n = 6
[7] = single oral 50 mg, geometric mean (geometric CV %), n = 11

For `CCc1nc(-c2ccc3c(c2)CC[C@H]3NC(=O)c2cnn(C)c2)no1` [aficamten, (R)—N-(5-(5-ethyl-1,2,4-oxadiazol-3-yl)-2,3-dihydro-1H-inden-1-yl)-1-methyl-1H-pyrazole-4-carboxamide], the “maximum time to maximum observed concentration across all participants” value ([1]; SAD cohorts) was 4.0 h, the AUC24 [1, 3] was 50 (20) ng · h/ml and the Cmax [1, 3] was 5.8 (38.4) ng/ml. The AUCinf ([1]; single oral 3 mg, geometric mean (geometric CV %), n = 5) was 823 (61) ng · h/ml, the AUC24 [1, 4] was 174 (27) ng · h/ml and the Cmax [1, 4] was 26.1 (82.4) ng/ml. The CL/F ([1]; single oral 3 mg, n = 5) was 4.2 ± 3.1 L/h, the t1/2 ([1]; single oral 3 mg, n = 5) was 75.1 ± 21.8 h and the Tmax ([1]; single oral 3 mg, n = 6) was 1.3 (0.5, 2.6) h. For the same molecule, the AUC24 ([1]; single oral 10 mg (extensive metabolizers), geometric mean (geometric CV %), n = 6) was 679 ng·h/mL, the t1/2 ([1]; single oral 10 mg (extensive metabolizers), n = 4) was 84.7 ± 17.7 h and the AUCinf ([1]; single oral 10 mg, geometric mean (geometric CV %), n = 4) was 3,434 (24) ng · h/ml. The Cmax ([1]; single oral 10 mg, geometric mean (geometric CV %), n = 6) was 70.5 (69.0) ng/ml, the CL/F ([1]; single oral 10 mg, n = 4) was 3.0 ± 0.7 L/h and the Tmax ([1]; single oral 10 mg, n = 6) was 2.8 (0.5, 3.0) h. The AUC24 [1, 5] was 1,493 (15) ng · h/ml, the AUCinf [1, 5] was 7,113 (15) ng · h/ml and the Cmax [1, 5] was 192.6 (23.3) ng/ml. The CL/F ([1]; single oral 25 mg, n = 6) was 3.6 ± 0.5 L/h, the Tmax ([1]; single oral 25 mg, n = 6) was 1.8 (0.5, 4.0) h and the AUCinf ([1]; single oral 40 mg, geometric mean (geometric CV %), n = 5) was 11,860 (20) ng · h/ml. The AUC24 [1, 6] was 2,532 (13) ng · h/ml, the Cmax [1, 6] was 383.2 (67.9) ng/ml and the t1/2 ([1]; single oral 40 mg, n = 4) was 79.2 ± 18.5 h. The CL/F ([1]; single oral 40 mg, n = 5) was 3.4 ± 0.6 L/h, the AUCinf ([1]; single oral 50 mg, geometric mean (geometric CV %), n = 9) was 13,740 (35) ng · h/ml and the AUC24 [1, 7] was 2,833 (26) ng · h/ml. For the same molecule, the Cmax [1, 7] was 359.4 (38.9) ng/ml, the CL/F ([1]; single oral 50 mg, n = 9) was 3.8 ± 1.1 L/h and the t1/2 ([1]; single oral 50 mg, n = 9) was 80.4 ± 14.9 h. For the same molecule, the Tmax ([1]; single oral 50 mg, n = 11) was 1.0 (0.5, 2.5) h, the Tmax ([1]; single oral 75 mg, n = 1) was 0.5 (0.5, 0.5) h and the AUC24 ([1]; single oral 75 mg, n = 1) was 4,556 (—) ng · h/ml. The Cmax ([1]; single oral 75 mg, n = 1) was 1,220 (—) ng/ml, the “dose proportionality of Cmax and exposure (AUC24)” value ([1]; single oral doses between 1 mg and 50 mg) was “dose-proportional; also recorded: linear kinetics” and the AUC24 ([2]; MAD 5 mg qd × 14 Days) was 278 ng·h/mL. The Cmax ([2]; MAD 5 mg qd × 14 Days) was 28.0 ng/mL, the Tmax ([2]; MAD 5 mg qd × 14 Days) was 1.3 h and the AUCtau ([2]; MAD 5 mg qd, Day 14) was 1320 ng·h/mL. The “Cmax, ss” value ([2]; MAD 5 mg qd, Day 14) was 69.0 ng/mL, the CLss/F ([2]; MAD 5 mg qd, Day 14) was 3.9 ± 0.9 L/h and the t1/2 ([2]; MAD 5 mg qd, Day 14) was 86.4 ± 11.9 h. The “Tmax, ss” value ([2]; MAD 5 mg qd, Day 14) was 2.8 h, the Tmax ([2]; MAD 7.5 mg qd × 17 Days) was 0.8 h and the AUCtau ([2]; MAD 7.5 mg qd, Day 17) was 2518 ng·h/mL. For the same molecule, the “Cmax, ss” value ([2]; MAD 7.5 mg qd, Day 17) was 147.6 ng/mL, the CLss/F ([2]; MAD 7.5 mg qd, Day 17) was 3.1 ± 0.7 L/h and the t1/2 ([2]; MAD 7.5 mg qd, Day 17) was 76.9 ± 14.5 h. It also gave an AUC24 ([2]; MAD 10 mg qd × 14 Days) of 547 ng·h/mL, a Cmax ([2]; MAD 10 mg qd × 14 Days) of 54.4 ng/mL and a Tmax ([2]; MAD 10 mg qd × 14 Days) of 1.0 h. The AUCtau ([2]; MAD 10 mg qd, Day 14) was 2632 ng·h/mL, the “Cmax, ss” value ([2]; MAD 10 mg qd, Day 14) was 141.2 ng/mL and the CLss/F ([2]; MAD 10 mg qd, Day 14) was 3.9 ± 0.8 L/h. The t1/2 ([2]; MAD 10 mg qd, Day 14) was 79.8 ± 14.1 h, the “Tmax, ss” value ([2]; MAD 10 mg qd, Day 14) was 2.5 h and the “steady state achieved by end of day” value ([2]; MAD 5-mg and 7.5-mg doses) was 12 days. The “steady state achieved by end of day” value ([2]; MAD 10-mg dose) was 10 days and the “time to steady state” value ([2]; once-daily dosing) was ≤ 2 weeks.
